We go through 13 compounds from patent US20230310445A1, “LOX ENZYME INHIBITING METHODS AND COMPOSITIONS” (ANOVIA BIOSCIENCES, INC., priority 2020, published 2023).

Bounds are passed on as bounds.

In assay [1] the target is T1, Bovine lysyl oxidase (LOX) (Bos taurus, UniProt P33072).
T1 construct: from tissue; host or cells: adult bovine tendon
T1 sequence (P33072 170-418): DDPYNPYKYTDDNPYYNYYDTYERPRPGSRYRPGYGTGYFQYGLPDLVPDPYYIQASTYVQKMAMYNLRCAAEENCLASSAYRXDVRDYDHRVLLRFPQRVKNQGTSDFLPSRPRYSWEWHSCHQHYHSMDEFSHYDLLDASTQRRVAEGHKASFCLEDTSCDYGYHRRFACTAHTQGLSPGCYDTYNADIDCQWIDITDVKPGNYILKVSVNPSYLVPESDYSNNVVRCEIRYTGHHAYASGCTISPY
The assay is described as follows: LOX inhibition assay (fluorometric, cadaverine/Amplex Red/HRP). It is filed as biochemical. The note with it: IC50 class; bovine tendon LOX, cadaverine substrate; read-out: Activity Range LOX. The protocol: (§1) The ability of compounds to inhibit prototypic LOX was determined using a fluorometric assay. This assay measures the activity of lysyl oxidases by coupling the reaction with horseradish peroxidase-catalyzed […]. The activity assay protocol uses cadaverine as substrate that releases hydrogen peroxide upon transformation by prototypic LOX enzyme present in the sample. Hydrogen peroxide is in turn detected using a red fluorescence substrate for HRP-coupled reactions (Amplex Red Enzyme Assays, Thermo Scientific Fisher). This leads to increase in fluorescence that can be easily detected at Ex/Em=540/590 nm in a fluorescence microplate reader.
Enzyme: Bovine lysyl oxidase (LOX) was extracted by adapting the methodology from [Kagan et al. 1979 and Borel et al. 2001.] from bovine tendon: Frozen adult bovine tendon was placed in room temperature water to defrost, and then membranes were removed and the remaining tissue cut into 1 cm pieces. The material was first passed through a course mesh meat grinder, and this mince was passed through a fine mesh grinder. The mince was homogenized in 10 v/w of buffer (16 mM sodium phosphate buffer pH 7.8, 400 mM NaCl) using a Waring blender. The homogenate was centrifuged at 15,000×g for 15 min at 4° C. After centrifugation, the supernatant was discarded and the pellets resuspended in 10 volumes of the same buffer. The mixture was blended again and centrifuged with the same settings. This time the pellets were blended in 3 volumes of extraction buffer (16 mM sodium phosphate buffer pH 7.8) and left to incubate at 4° C. for 2 h. After this time, the slurry was centrifuged with the same settings as described above. The supernatant was used in an ultrafiltration step to remove large proteins by size exclusion through a 30 kDalton filter (EMD Millipore). The filtrate was mixed with DEAE Sephadex (GE Healthcare), or passed over a MonoQ FPLC column. After two washes, one in 16 mM sodium phosphate buffer pH 7.8, 380 mM NaCl, and another in 16 mM sodium phosphate buffer pH 7.8, the proteins were eluted with 16 mM sodium phosphate pH 7.8, 10 μM CuSO4, and 4 M urea. Fractions containing Lox activity were collected and stored frozen at −70° C.
Reaction: Final concentration in the LOX assay was as following and performed in a total volume of […]:
Experimental procedure: 7 μl of freshly prepared reaction buffer were delivered to reaction wells. Compounds were resuspended in 100% DMSO at 10 mM and delivered into buffer using acoustic technology (Echo550; nanoliter range). A 2.85× solution of LOX protein in reaction buffer was prepared (“LOX solution”) and 7 μl of LOX solution was added into the reaction wells. Buffer only was added to column 1 for no protein control. Reactions were incubated for 30 minutes at 37° C. A 3.33× mixture of cadaverine, Amplex Red, and HRP (“Substrate/Detection Mix) was prepared and subsequently 6 μL of the mixture was added to each reaction well. Progress of reactions was monitored for 120 minutes at 37° C. using Clariostar plate reader (ex530-12, ems 600-40). For all activity assays, pan-LOX inhibitor CCT365623 (Tang et al, 2017) and LOXL2/LOXL3 inhibitor PAT-1251 (PharmaKea) were included as standards.
Data analysis: Slope of the linear portion of the progress curve was calculated using Clariostar software. Typical analysis interval was between 20-50 min, but varied between experiments. The background subtracted signals (No protein wells were considered as background) were converted to % activity relative to DMSO controls. Data was analyzed using GraphPad Prism 4 with “sigmoidal dose-response (variable slope)”; 4 parameters with Hill Slope. Constraints: Bottom=Constant equal to 0. Top=Must be less than 120.

The target of assay [2] is T2, Recombinant human LOXL2 (lysyl oxidase like 2) (Homo sapiens, UniProt Q9Y4K0).
T2 construct: purchased R&D systems
T2 sequence (Q9Y4K0 26-774): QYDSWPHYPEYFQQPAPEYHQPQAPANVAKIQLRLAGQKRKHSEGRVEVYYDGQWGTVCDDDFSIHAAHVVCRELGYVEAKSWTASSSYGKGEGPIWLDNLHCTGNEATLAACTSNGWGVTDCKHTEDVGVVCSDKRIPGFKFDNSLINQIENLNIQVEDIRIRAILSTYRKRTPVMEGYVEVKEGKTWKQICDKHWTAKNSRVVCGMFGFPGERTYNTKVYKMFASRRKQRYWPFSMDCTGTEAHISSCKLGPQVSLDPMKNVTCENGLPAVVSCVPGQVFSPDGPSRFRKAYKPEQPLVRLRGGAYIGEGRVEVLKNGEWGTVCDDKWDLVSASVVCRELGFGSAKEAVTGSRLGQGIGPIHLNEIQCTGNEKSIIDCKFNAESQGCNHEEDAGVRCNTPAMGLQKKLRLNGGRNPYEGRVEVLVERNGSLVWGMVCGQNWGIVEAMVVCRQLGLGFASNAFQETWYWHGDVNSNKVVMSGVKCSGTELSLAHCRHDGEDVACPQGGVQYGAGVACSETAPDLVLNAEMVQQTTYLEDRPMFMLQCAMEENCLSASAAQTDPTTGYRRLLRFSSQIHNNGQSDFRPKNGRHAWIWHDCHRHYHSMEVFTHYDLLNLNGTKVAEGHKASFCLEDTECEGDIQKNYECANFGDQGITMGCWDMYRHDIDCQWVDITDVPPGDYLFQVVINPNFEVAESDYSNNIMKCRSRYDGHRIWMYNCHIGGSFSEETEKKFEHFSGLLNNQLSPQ
The assay is described as follows: LOXL2 inhibition assay (fluorometric, cadaverine/Amplex Red/HRP). The format is biochemical. The note with it: IC50 class; recombinant human LOXL2, cadaverine substrate; read-out: Activity Range LOXL2. On the procedure: as §1, with “inhibit one or more of the lysyl oxidases LOXL2 and/or LOXL3” for “inhibit prototypic LOX”, “by the specific” for “by prototypic”, “LOX family” for “LOX”
Enzymes: Recombinant human LOXL2 (lysyl oxidase like 2) and recombinant human LOXL3 (lysyl oxidase like 3) were purchased from R&D systems and assays were performed in 1.2 M urea, 50 mM sodium borate buffer pH 8.0, and 10 mM CaCl.
Reaction: Final concentration in the LOXL2 and LOXL3 assays were as following and performed in a total volume of […]:
Experimental procedure: 5 μl of freshly prepared reaction buffer were delivered to reaction wells. Compounds were resuspended in 100% DMSO at 10 mM and delivered into buffer using acoustic technology (Echo550; nanoliter range). A 3× solution of LOXL2 or LOXL3 in reaction buffer was prepared (“enzyme solution”) and 5 μL of enzyme solution was added into the reaction wells. Buffer only was added to column 1 for no protein control. Reactions were incubated for 30 minutes at 37° C. A 3×mixture of cadaverine, Amplex Red, and HRP (“Substrate/Detection Mix) was prepared and subsequently 5 μL of the mixture added to each reaction well. Progress of reactions was monitored for 60 minutes at 37° C. using Clariostar plate reader (ex 530-12, ems 600-40). For all activity assays, pan-LOX inhibitor CCT365623 (Tang et al, 2017) and LOXL2/LOXL3 inhibitor PAT-1251 (PharmaKea) were included as standards.
Data analysis: Slope of the linear portion of the progress curve was calculated using Clariostar software. Typical analysis interval was between 8-30 min, but varied between experiments. The background subtracted signals (No protein wells are considered as background) were converted to % activity relative to DMSO controls. Data was analyzed using GraphPad Prism 4 with “sigmoidal dose-response (variable slope)”; 4 parameters with Hill Slope. Constraints: Bottom=Constant equal to 0. Top=Must be less than 120.

With `CS(=O)(=O)N1C[C@H](Oc2cc(CN)ccc2F)C[C@H](c2ccccc2)C1` (racemic) [Example 69, cis-(4-Fluoro-3-((-1-(methylsulfonyl)-5-phenylpiperidin-3-yl)oxy)phenyl)methanamine 2,2,2-trifluoroacetate], the IC50 in assay [1] was more than 30000 nM; in assay [2], not above 500 nM.

As for `CS(=O)(=O)N1C[C@H](Oc2cc(CN)ccc2F)C[C@H](c2ccccc2F)C1` (racemic) [Example 71, cis-(4-Fluoro-3-((-5-(2-fluorophenyl)-1-(methylsulfonyl)piperidin-3-yl)oxy)phenyl)methanamine 2,2,2-trifluoroacetate], the IC50 in assay [1] is more than 30000 nM; in assay [2], 500 to 1000 nM.

Consider `NCc1cccc(O[C@@H]2C[C@H](c3ccccc3)CN(C(=O)N3CCOCC3)C2)c1` (racemic) [Example 72], for which the IC50 in assay [1] was more than 30000 nM; in assay [2], 1000 to 30000 nM.

For the compound `NCc1cccc(O[C@@H]2C[C@H](c3ccccc3)CN(C(=O)N3CCS(=O)(=O)CC3)C2)c1` (racemic) [Example 73, cis-(3-(3-(Aminomethyl)phenoxy)-5-phenylpiperidin-1-yl)(1,1-dioxidothiomorpholino)methanone], the IC50 in assay [1] was more than 30000 nM; in assay [2], 1000 to 30000 nM.

Consider `NCc1ccc(S(=O)(=O)N2C[C@@H](C(=O)N3CCS(=O)(=O)CC3)C[C@@H](c3ccccc3)C2)s1` (racemic) [Example 75, cis-(1-((5-(Aminomethyl)thiophen-2-yl)sulfonyl)-5-phenylpiperidin-3-yl)(1,1-dioxidothiomorpholino)methanone 2,2,2-trifluoroacetate], for which the IC50 in assay [1] and in assay [2] was not above 500 nM each time.

On to `CS(=O)(=O)N1CCN(C(=O)[C@H]2C[C@@H](c3ccccc3)CN(S(=O)(=O)c3ccc(CN)s3)C2)CC1` (racemic) [Example 76], for which the IC50 in assay [1] and in assay [2] was not above 500 nM each time.

As for `NCc1cccc(S(=O)(=O)N2C[C@@H](C(=O)N3CCS(=O)(=O)CC3)C[C@@H](c3ccccc3)C2)c1` (racemic) [Example 77], the values for the IC50 in assay [1] and in assay [2] were more than 30000 nM and 1000 to 30000 nM, respectively.

`CS(=O)(=O)N1CCN(C(=O)[C@H]2C[C@@H](c3ccccc3)CN(S(=O)(=O)c3cccc(CN)c3)C2)CC1` (racemic) [Example 78, cis-(1-((3-(Aminomethyl)phenyl)sulfonyl)-5-phenylpiperidin-3-yl)(4-(methylsulfonyl)piperazin-1-yl)methanone 2,2,2-trifluoroacetate]: the IC50 was more than 30000 nM in assay [1] and 500 to 1000 nM in assay [2].

With `NCc1cccc(O[C@H]2C[C@H](c3ccccc3)CN(C(=O)N3CCS(=O)(=O)CC3)C2)c1` (racemic) [Example 82, trans-(3-(3-(Aminomethyl)phenoxy)-5-phenylpiperidin-1-yl)(1,1-dioxidothiomorpholino)methanone], the IC50 was more than 30000 nM in assay [1] and 1000 to 30000 nM in assay [2].

In the case of `CS(=O)(=O)N1CCN(C(=O)[C@@H]2C[C@@H](c3ccccc3)CN(S(=O)(=O)c3cccc(CN)c3)C2)CC1` (racemic) [Example 84, trans-(1-((3-(Aminomethyl)phenyl)sulfonyl)-5-phenylpiperidin-3-yl)(4-(methylsulfonyl)piperazin-1-yl)methanone 2,2,2-trifluoroacetate], the values for the IC50 in assay [1] and in assay [2] were 1000 to 30000 nM and not above 500 nM, respectively.

On to `CS(=O)(=O)N1C[C@@H](Oc2cc(CN)ccc2F)C[C@H](c2ccccc2)C1` (racemic) [Example 90, trans-(4-Fluoro-3-((-1-(methylsulfonyl)-5-phenylpiperidin-3-yl)oxy)phenyl)Methanamine 2,2,2-trifluoroacetate], for which the results for the IC50 in assay [1] and in assay [2] were more than 30000 nM and 500 to 1000 nM, respectively.

For `CS(=O)(=O)N1C[C@@H](Oc2cc(CN)ccc2F)C[C@H](c2ccccc2F)C1` (racemic) [Example 93, trans-(4-Fluoro-3-((-5-(2-fluorophenyl)-1-(methylsulfonyl)piperidin-3-yl)oxy)phenyl)methanamine 2,2,2-trifluoroacetate], the IC50 is more than 30000 nM in assay [1] and not above 500 nM in assay [2].

Turning to `CN(C)C(=O)N1C[C@@H](c2ccccc2)C[C@H](S(=O)(=O)c2cccc(CN)c2)C1` (racemic) [Example 94, trans-3-((3-(Aminomethyl)phenyl)sulfonyl)-N,N-dimethyl-5-phenylpiperidine-1-carboxamide 2,2,2-trifluoroacetate], the IC50 in assay [1] was more than 30000 nM; in assay [2] it was 500 to 1000 nM.
